System: tumor cell
Experiment: Cytotoxicity assay (MTS)
Format: cell-based
Settings: 72 h; incubation for three days; read-out: IC50, tumor cell growth inhibition (MTS)
Experimental: The efficacy of a test compound in inhibiting tumor cell growth was analyzed using a MTS assay. The MTS assay is a calorimetric method for the determination of viable cells in proliferation by using a tetrazolium compound (3-(4,5-dimethylthiazol-2-yl)-5-(3-[…])-2-(4-sulfophenyl)-2H-tetrazolium, inner salt; MTS) and an electron-coupling agent (phenazine methosulfate; PMS). The MTS reagent is converted by dehydrogenase enzymes in metabolically active cells into a formazan that is soluble in a tissue culture medium.
In this assay, tumor cell suspensions (30 μl/well) were seeded into 384-well flat-bottomed tissue culture plates at an appropriate density overnight. A fresh medium (3 μl/well) containing varying concentrations of a test compound or vehicle was added to the culture followed by incubation for three days. At the end of the incubation, all plates were processed simultaneously as follows: The culture medium was aspirated, a MTS cell proliferation assay (Promega) solution (30 μl/well) was added, and the plates were incubated at 37° C. for about 2 hours. Absorbance (a parameter proportional to the cell mass) was measured at 490 nm using a Multiskan (Thermo Electron Corporation, Waltham, Mass.). Inhibition effects were expressed as corrected T/C values for each test compound according to the following equation:
T/C=(T−Blank)/(C−Blank)×100(%),
where T is the mean absorbance of the treated cells, C is the mean absorbance of the controls, and Blank is the mean absorbance of the cell free well.

SMILES | IC50 [µM]
Cc1ccc(C(=O)N(CCCN)C(c2nc3cc4[nH]c(Br)cc4cc3c(=O)n2Cc2cccs2)C(C)C)cc1 (stereo not drawn) [Compound 1] | < 30
Cc1ccc(C(=O)N(CCCN)C(c2nc3cc4[nH]ccc4cc3c(=O)n2Cc2cccs2)C(C)C)cc1 (stereo not drawn) [Compound 2] | < 30
Cc1ccc(C(=O)N(CCCN)C(c2nc3cc4ccccc4cc3c(=O)n2Cc2ccccc2)C(C)C)cc1 (stereo not drawn) [Compound 3] | < 30
Cc1ccc(C(=O)N(CCCN)C(c2nc3c(Br)c4ccccc4cc3c(=O)n2Cc2ccccc2)C(C)C)cc1 (stereo not drawn) [Compound 4] | < 30
Cc1ccc(C(=O)N(CCCN)C(c2nc3cc4ccccc4cc3c(=O)n2Cc2ccc(Cl)s2)C(C)C)cc1 (stereo not drawn) [Compound 5] | < 30
Cc1ccc(C(=O)N(CCCN)C(c2nc3c(Br)c4ccccc4cc3c(=O)n2Cc2ccc(Cl)s2)C(C)C)cc1 (stereo not drawn) [Compound 6] | < 30
Cc1ccc(CN(CCCN)C(c2nc3cc4ccccc4cc3c(=O)n2Cc2ccccc2)C(C)C)cc1 (stereo not drawn) [Compound 7] | < 30
Cc1ccc(C(=O)N(CCCN)C(c2nc3c(C#N)c4ccccc4cc3c(=O)n2Cc2ccc(Cl)s2)C(C)C)cc1 (stereo not drawn) [Compound 8] | < 30
Cc1ccc(C(=O)N(CCCN)C(c2nc3c(I)c4ccccc4cc3c(=O)n2Cc2ccccc2)C(C)C)cc1 (stereo not drawn) [Compound 9] | < 30
Cc1ccc(C(=O)N(CCCN)C(c2nc3nc4ccccc4nc3c(=O)n2Cc2ccccc2)C(C)C)cc1 (stereo not drawn) [Compound 10] | < 30
CCC(c1nc2nc3ccccc3cc2c(=O)n1Cc1ccccc1)N(CCCN)C(=O)c1ccc(C)cc1 (stereo not drawn) [Compound 11] | < 30
CCC(c1nc2nc3cc(Cl)ccc3cc2c(=O)n1Cc1ccccc1)N(CCCN)C(=O)c1ccc(C)cc1 (stereo not drawn) [Compound 12] | < 30
Cc1ccc(C(=O)N(CCCN)C(c2nc3c(oc4ccccc43)c(=O)n2Cc2ccccc2)C(C)C)cc1 (stereo not drawn) [Compound 13] | < 30
Cc1ccc(C(=O)N(CCCN)C(c2nc3c(oc4ccccc43)c(=O)n2Cc2ccc(Br)s2)C(C)C)cc1 (stereo not drawn) [Compound 14] | < 30
Cc1ccc(C(=O)N(CCCN)C(c2nc3c(oc4ccccc43)c(=O)n2Cc2cccs2)C(C)C)cc1 (stereo not drawn) [Compound 15] | < 30
Cc1ccc(C(=O)N(CCCN)C(c2nc3c(oc4ccccc43)c(=O)n2Cc2ccc(Cl)s2)C(C)C)cc1 (stereo not drawn) [Compound 16] | < 30
CCC(c1nc2c(oc3ccccc32)c(=O)n1Cc1ccccc1)N(CCCN)C(=O)c1ccc(C)cc1 (stereo not drawn) [Compound 17] | < 30
CCC(c1nc2c(oc3ccccc32)c(=O)n1Cc1ccccc1)N(CCCN(C)C)C(=O)c1ccc(C)cc1 (stereo not drawn) [Compound 19] | < 30
CCC(c1nc2c(oc3ccccc32)c(=O)n1Cc1ccccc1)N(CCCN(C)C)C(=O)c1ccc(Br)cc1 (stereo not drawn) [Compound 20] | < 30
CCC(c1nc2c(oc3ccccc32)c(=O)n1Cc1ccccc1)N(CCN)C(=O)c1ccc(C)cc1 (stereo not drawn) [Compound 21] | < 30
CCC(c1nc2c(oc3ccccc32)c(=O)n1Cc1ccccc1)N(CCCCN)C(=O)c1ccc(C)cc1 (stereo not drawn) [Compound 22] | < 30

SMILES | IC50 [µM]
CCC(c1nc2c(oc3ccccc32)c(=O)n1Cc1ccccc1)N(CCN(C)C)C(=O)c1ccc(Br)cc1 (stereo not drawn) [Compound 23] | < 30
CCC(c1nc2c(oc3ccccc32)c(=O)n1Cc1ccccc1)N(CCCCN(C)C)C(=O)c1ccc(Br)cc1 (stereo not drawn) [Compound 24] | < 30
Cc1ccc(C(=O)N(CCN)C(c2nc3c(oc4ccccc43)c(=O)n2Cc2ccccc2)C(C)C)cc1 (stereo not drawn) [Compound 25] | < 30
Cc1ccc(C(=O)N(NCCN)C(c2nc3c(oc4ccccc43)c(=O)n2Cc2ccccc2)C(C)C)cc1 (stereo not drawn) [Compound 26] | < 30
Cc1ccc(C(=O)N(CCCN)C(c2nc3c(oc4ccccc43)c(=O)n2Cc2ccccc2F)C(C)C)cc1 (stereo not drawn) [Compound 27] | < 30
CC(C)C(c1nc2c(oc3ccccc32)c(=O)n1Cc1ccccc1F)N(CCCN)C(=O)c1ccc(Br)cc1 (stereo not drawn) [Compound 28] | < 30
Cc1ccc(C(=O)N(CCCN)C(c2nc3c(oc4ccccc43)c(=O)n2Cc2ccccc2O)C(C)C)cc1 (stereo not drawn) [Compound 29] | < 30
Cc1ccc(C(=O)N(CCCN)C(c2nc3c(oc4ccc(C(F)(F)F)cc43)c(=O)n2Cc2ccccc2)C(C)C)cc1 (stereo not drawn) [Compound 30] | < 30
CCC(c1nc2c(oc3ccc(Cl)cc32)c(=O)n1Cc1ccccc1)N(CCCN)C(=O)c1ccc(C)cc1 (stereo not drawn) [Compound 31] | < 30
CCC(c1nc2c(oc3ccc(Cl)cc32)c(=O)n1Cc1ccccc1)N(CCN)C(=O)c1ccc(C)cc1 (stereo not drawn) [Compound 32] | < 30
CCC(c1nc2c(oc3ccc(Cl)cc32)c(=O)n1Cc1ccccc1)N(CCCN)S(=O)(=O)c1ccc(C)cc1 (stereo not drawn) [Compound 33] | < 30
CCC(c1nc2c(oc3ccc(Cl)cc32)c(=O)n1Cc1ccccc1)N(CCN)S(=O)(=O)c1ccc(C)cc1 (stereo not drawn) [Compound 34] | < 30
Cc1ccc(C(=O)N(CCCN)C(c2nc3c(oc4ccc(Cl)cc43)c(=O)n2Cc2ccccc2)C(C)C)cc1 (stereo not drawn) [Compound 35] | < 30
Cc1ccc(C(=O)N(CCN)C(c2nc3c(oc4ccc(Br)cc43)c(=O)n2Cc2ccccc2)C(C)C)cc1 (stereo not drawn) [Compound 37] | < 30
Cc1ccc(C(=O)N(CCCN)C(c2nc3c(oc4ccc(Br)cc43)c(=O)n2Cc2ccccc2)C(C)C)cc1 (stereo not drawn) [Compound 38] | < 30
Cc1ccc(C(=O)N(CCN)C(c2nc3c(oc4ccc(C)cc43)c(=O)n2Cc2ccccc2)C(C)C)cc1 (stereo not drawn) [Compound 39] | < 30
Cc1ccc(C(=O)N(CCCN)C(c2nc3c(oc4ccc(C)cc43)c(=O)n2Cc2ccccc2)C(C)C)cc1 (stereo not drawn) [Compound 40] | < 30
Cc1ccc(C(=O)N(CCCN)C(c2nc3c(oc4ccc(Cl)cc43)c(=O)n2Cc2ccc(Br)s2)C(C)C)cc1 (stereo not drawn) [Compound 41] | < 30
Cc1ccc(C(=O)N(CCCN)C(c2nc3c(oc4ccc(Cl)cc43)c(=O)n2Cc2cccs2)C(C)C)cc1 (stereo not drawn) [Compound 43] | < 30
Cc1ccc(C(=O)N(CCN)C(c2nc3c(oc4ccc(Cl)cc43)c(=O)n2Cc2cccs2)C(C)C)cc1 (stereo not drawn) [Compound 44] | < 30
Cc1ccc(C(=O)N(CCCN)C(c2nc3c(oc4ccc(Cl)cc43)c(=O)n2Cc2ccc(Cl)s2)C(C)C)cc1 (stereo not drawn) [Compound 45] | < 30

SMILES | IC50 [µM]
Cc1ccc(C(=O)N(CCN)C(c2nc3c(oc4ccc(Cl)cc43)c(=O)n2Cc2ccc(Cl)s2)C(C)C)cc1 (stereo not drawn) [Compound 46] | < 30
Cc1ccc(C(=O)N(CCCN)C(c2nc3c(oc4ccc(Cl)cc43)c(=O)n2Cc2ccc(C#N)s2)C(C)C)cc1 (stereo not drawn) [Compound 47] | < 30
Cc1ccc(C(=O)N(CCN)C(c2nc3c(oc4ccc(Cl)cc43)c(=O)n2Cc2ccc(C#N)s2)C(C)C)cc1 (stereo not drawn) [Compound 48] | < 30
Cc1ccc(C(=O)N(CCN)C(c2nc3c(oc4ccc(Cl)cc43)c(=O)n2Cc2cc(Br)cs2)C(C)C)cc1 (stereo not drawn) [Compound 49] | < 30
CCCC(c1nc2c(oc3ccccc32)c(=O)n1Cc1ccccc1)N(CCCN)C(=O)c1ccc(C)cc1 (stereo not drawn) [Compound 50] | < 30
CCCC(c1nc2c(oc3ccccc32)c(=O)n1Cc1ccccc1)N(CCN)C(=O)c1ccc(C)cc1 (stereo not drawn) [Compound 51] | < 30
Cc1ccc(C(=O)N(CCN)C(c2nc3c(oc4ccc(Cl)cc43)c(=O)n2Cc2ccccc2)C(C)C)cn1 (stereo not drawn) [Compound 56] | < 30
CCCC(c1nc2c(oc3ccccc32)c(=O)n1Cc1ccccc1)N(CC(O)CN)C(=O)c1ccc(C)cc1 (stereo not drawn) [Compound 58] | < 30
Cc1ccc(C(=O)N(CCN)C(c2nc3c(oc4ccc(Br)cc43)c(=O)n2Cc2ccccc2)C(C)C)cn1 (stereo not drawn) [Compound 59] | < 30
Cc1ccc(C(=O)N(CCN)C(c2nc3c(oc4cccc(F)c43)c(=O)n2Cc2ccccc2)C(C)C)cc1 (stereo not drawn) [Compound 60] | < 30
Cc1ccc(C(=O)N(CCCN)C(c2nc3c(oc4cccc(F)c43)c(=O)n2Cc2ccccc2)C(C)C)cc1 (stereo not drawn) [Compound 61] | < 30
Cc1ccc(C(=O)N(CCCN)C(c2nc3c(oc4ccc(F)cc43)c(=O)n2Cc2ccccc2)C(C)C)cc1 (stereo not drawn) [Compound 63] | < 30
CC(C)C(c1nc2c(oc3ccc(F)cc32)c(=O)n1Cc1ccccc1)N(CCN)C(=O)c1ccc(Cl)cc1 (stereo not drawn) [Compound 64] | < 30
CC(C)C(c1nc2c(oc3ccc(F)cc32)c(=O)n1Cc1ccccc1)N(CCN)C(=O)c1ccc(Br)cc1 (stereo not drawn) [Compound 65] | < 30
CC(C)C(c1nc2c(oc3ccc(F)cc32)c(=O)n1Cc1ccc(Cl)s1)N(CCN)C(=O)c1ccc(Cl)cc1 (stereo not drawn) [Compound 68] | < 30
Cc1ccc(C(=O)N(CCN)C(c2nc3c(oc4ccc(F)cc43)c(=O)n2Cc2cc(Br)cs2)C(C)C)cc1 (stereo not drawn) [Compound 69] | < 30
Cc1ccc(C(=O)N(CCCN)C(c2nc3c(oc4ccc(F)cc43)c(=O)n2Cc2ccc(Br)s2)C(C)C)cc1 (stereo not drawn) [Compound 70] | < 30
Cc1ccc(C(=O)N(CCCN)C(c2nc3c(oc4ccc(F)cc43)c(=O)n2Cc2ccc(Cl)s2)C(C)C)cc1 (stereo not drawn) [Compound 71] | < 30
Cc1ccc(C(=O)N(CCCN)C(c2nc3c(oc4ccc(F)cc43)c(=O)n2Cc2ccc(C#N)s2)C(C)C)cc1 (stereo not drawn) [Compound 72] | < 30
Cc1ccc(C(=O)N(CCCN)C(c2nc3c(oc4ccc(F)cc43)c(=O)n2Cc2cc(Br)cs2)C(C)C)cc1 (stereo not drawn) [Compound 73] | < 30
Cc1ccc(C(=O)N(CCCN)C(c2nc3c(oc4ccc(F)cc43)c(=O)n2Cc2cccs2)C(C)C)cc1 (stereo not drawn) [Compound 74] | < 30

From US20090214529A9, “KINESIN INHIBITORS” (TaiGen Biotechnology Co., Ltd., priority 2007, published 2009)
